We go through 2 molecules from patent US20170189419A1, “PHARMACEUTICAL COMPOSITION FOR TREATING PROSTATE CANCER” (MA SHEN KAI RUEI CO., LTD., priority 2015, published 2017).

Molecules are shown by their SMILES.

For assay [1], the system named is human prostate-cancer cells PC3. The assay is described as follows: MTT survival assay, PC3 prostate cancer cells. The assay is classed as cell-based. Particulars: for half-maximal inhibitory concentration (IC50): PC3 cells; for survival rate / growth of prostate cancer cell: PC-3 cells, compound isolated from Extraction A. The source says: (§1) According to the present invention, the effects such as treating Prostate cancer, inhibiting the growth of Prostate cancer cell and others, of Antroquinonol B (AnQB) and/or Anctin K (AnK) may be tested by using any of the test methods used in the prior arts, for example, MTT assay of using 3-(4, 5-dimethylthiazol-2-yl)-2, S-diphenyl tetrazolium bromide (MTT) to determine cell survival rates of Prostate cancer cell lines.
(§2) The Antroquinonol B (AnQB) and Anctin K (AnK) separately isolated from the Extraction A of Example 1 were added into the culture media of human prostate-cancer cells, PC3 or DU-145, to test for tumor cell survival by using anti-cancer drug screen model. This survival assay was carried out with the widely known MTT (3-[4,5-dimethylthiazol-2-yl]2,5-diphenyltetrazolium bromide) assay.
(§3) The human prostate cancer cell lines, PC-3 and DU-145 were cultivated in media containing fetal calf serum for 18 hours. The proliferated cells were washed once with PBS, then treated with 1× trypsin-EDTA and centrifuged at 2500 rpm for […]. The supernatant was discarded and the cell pellet was re-suspended in 200 ml of fresh culture medium by gently shaking. The cells were placed in a 96-well plate.
(§4) Subsequently, the plates were read on an ELISA reader to determine the survival rates. The half maximal inhibitory concentration (IC50) values were calculated and results of ex vivo survival assay were thus obtained.
(§5) By using the same manner as the method described above, respectively human Prostate cancer cell line PC-3 and DU-145 was cultured. After then, the pharmaceutical compositions A˜F of the present invention was applied separately, and then MTT assay for each sample was measured to assess the inhibition effectiveness of various cancer cell activity while using pharmaceutical compositions A˜F of the present invention.

In assay [2] the test system is human prostate-cancer cells DU-145. The assay is described as follows: MTT survival assay, DU-145 prostate cancer cells. The assay is classed as cell-based. Particulars: DU-145 cells; for survival rate / growth of prostate cancer cell: compound isolated from Extraction A.
Description: as §1, §2, §3, §4, §5
For orientation: Tetrazolium assays rely on reduction of a dye to a coloured formazan, in cell work by metabolically active cells.

As to `C=C(CC[C@@H](C(=O)O)[C@H]1CC[C@@]2(C)C3=CC[C@H]4C(C)(C)[C@@H](O)CC[C@]4(C)C3=CC[C@]12C)C(C)C` [Anctin K], in assay [1], the “half-maximal inhibitory concentration (IC50)” value is listed as “relatively low” and the “survival rate / growth of prostate cancer cell” value (“survival rate / growth” for short) is “can inhibit the growth”. Moreover, in assay [2], the “half-maximal inhibitory concentration (IC50)” value is listed as “relatively low” and the “survival rate / growth” value was “can inhibit the growth”.

Consider `COC1=C(OC)[C@H](O)[C@H](C/C=C(\C)CC/C=C(/C)C/C=C/C(C)(C)O)[C@@H](C)C1=O` [Antroquinonol B], for which, in assay [1], the “half-maximal inhibitory concentration (IC50)” value is “relatively low” and the “survival rate / growth” value was “can inhibit the growth”. In assay [2], the “half-maximal inhibitory concentration (IC50)” value is “relatively low” and the “survival rate / growth” value was “can inhibit the growth”.
